Holding throughout (type): cell-based
The target of experiment [1] is T1, F317L Bcr-abl (Homo sapiens, UniProt P00519, F317L).
T1 construct: expressed in transfected cells; host or cells: Ba/F3 (murine pro-B cells); the other entry of the earlier key: BCR (P11274, Breakpoint cluster region protein)
Briefly: Antiproliferative effect on Ba/F3 cells expressing mutant Bcr-abl F317L. As to the method:
(§1) Compounds selectively inhibiting the proliferation of these Bcr-abl transformed cells are tested for anti-proliferative activity on Ba/F3 cells expressing either wild type or the mutant forms of Bcr-abl.
(§2) 32D-p210 cells are plated into 96 well TC plates at a density of 15,000 cells per well. 50 μL of two fold serial dilutions of the test compound (Cmax is 40 μM) are added to each well (ST1571 is included as a positive control). After incubating the cells for 48 hours at 37° C., 5% CO2, 15 μL of MTT (Promega) is added to each well and the cells are incubated for an additional 5 hours. The optical density at 570 nm is quantified spectrophotometrically and IC50 values, the concentration of compound required for 50% inhibition, determined from a dose response curve.
(§3) Compounds of the invention are tested for their antiproliferative effect on Ba/F3 cells expressing either wild type or the mutant forms of Bcr-abl (G250E, E255V, T315I, F317L, M351T) that confers resistance or diminished sensitivity to STI571. The antiproliferative effect of these compounds on the mutant-Bcr-abl expressing cells and on the non transformed cells were tested at 10, 3.3, 1.1 and 0.37 μM as described above (in media lacking IL3). The IC50 values of the compounds lacking toxicity on the untransformed cells were determined from the dose response curves obtained as describe above.

For experiment [2], the target named is T2, E255V Bcr-abl (Homo sapiens, UniProt P00519, E255V).
T2 construct: expressed in transfected cells; host or cells: Ba/F3 (murine pro-B cells); the other entry of the earlier key: BCR (P11274, Breakpoint cluster region protein)
Briefly: Antiproliferative effect on Ba/F3 cells expressing mutant Bcr-abl E255V. How it is done:
as §1, §2, §3

Experiment [3] deals with T3, G250E Bcr-abl (Homo sapiens, UniProt P00519, G250E).
T3 construct: expressed in transfected cells; host or cells: Ba/F3 (murine pro-B cells); the other entry of the earlier key: BCR (P11274, Breakpoint cluster region protein)
The experiment is described as follows: Antiproliferative effect on Ba/F3 cells expressing mutant Bcr-abl G250E. As to the method: as §1, §2, §3

The target of experiment [4] is T4, M351T Bcr-abl (Homo sapiens, UniProt P00519, M351T).
T4 construct: expressed in transfected cells; host or cells: Ba/F3 (murine pro-B cells); the other entry of the earlier key: BCR (P11274, Breakpoint cluster region protein)
Briefly: Antiproliferative effect on Ba/F3 cells expressing mutant Bcr-abl M351T. How it is done:
as §1, §2, §3

Experiment [5] deals with T5, wild-type Bcr-abl (Homo sapiens, UniProt P00519).
T5 construct: expressed in transfected cells; host or cells: Ba/F3 (murine pro-B cells); the other entry of the earlier key: BCR (P11274, Breakpoint cluster region protein)
Briefly: Antiproliferative effect on Ba/F3 cells expressing wild type Bcr-abl. How it is done: as §1, §2, §3

Experiment [6] deals with T6, T3151 Bcr-abl (Homo sapiens, UniProt P00519, T315I, cells depend on it).
T6 construct: fused on or other part: P11274 (Breakpoint cluster region protein)
The experiment is described as follows: Antiproliferative effect on Ba/F3 cells expressing mutant Bcr-abl T315I. How it is done: as §1, §2, §3

This is an account of results in patent US20050014753A1, “Novel compounds and compositions as protein kinase inhibitors” (IRM LLC, priority 2003, published 2005).

The structures appear in SMILES notation.

On to `NC(=O)c1ccc(-c2cc(-c3cc(Nc4ccc(OC(F)(F)F)cc4)ncn3)ccn2)cc1` [Compound 97], for which the IC50 in experiment [1] was found to be 4450 nM; in experiment [2], 250 nM; in experiment [3], 4780 nM; in experiment [4] it was 970 nM; in experiment [5], 200 nM; in experiment [6], 5280 nM.
